From patent US20260327211A1, “MODULATORS OF A POTASSIUM CHANNEL AND OF TRPV1 CHANNEL AND USES THEREOF” (Bsense Bio Therapeutics Ltd., priority 2023, published 2026)
pIC50: −log10 of the molar value.

Columns and labels:
rat DRG neurons = assay: Rat DRG neurons, current-evoked action potential firing; format: cell-based
Excerpt: rDRGs isolation and primary cell culture: Briefly, rat DRGs from all spinal levels were carefully removed and collected in HBSS on ices, connective tissue of the epineurium surrounding the ganglion was removed and cells were dissociated using Collagenase-II and trypsin dissociation solutions. DRGs were dissociated further, passed through glass Pasteur pipettes to obtain single cells. Then dissociation solution was changed to 5% FBS containing DRG neuronal culture medium and plated onto ECL coated 12 mm cover glass.
Additional rDRGs experiments were performed using Lonza primary neonatal rat (Sprague Dawley neonatal; P2,3) DRG neurons (R-DRG-505, Lonza) plated and cultured according to the manufacturer.
Electrophysiology: Cells were used for electrophysiological recording at least 48 hours following rDRG isolation or at least 5 days following cryopreserved rDRG thawing. Round small neurons (20-40 μm in diameter) were selected for electrophysiology recordings, to select for small nociceptive neurons that propagate pain sensation in vivo and that are expressing both Kv7.2/3 and TRPV1 targets. Membrane excitability was monitored using current clamp configuration of the whole-cell patch-clamp technique. Positive current steps of different amplitude were injected (400 ms) to induce spikes trains before and following compound application.

rats = assay: Rotarod assay (PSPP); format: in vivo, rat; settings: up to 300 mg/kg, male and female, 1-6 hours post-dose
Excerpt: Animals: 50 male and 50 female Sprague Dawley rats from Envigo (Frederick, MD) were used in the study. Male animals were received at body weights between approximately 200-215 grams, and female animals between 175-205 grams. All animals were housed 3 per cage (15.55×13.63×8.39 inches) and acclimated to the vivarium for 6-9 days prior to testing. All cages contained BedO'Cob® bedding with Nylabones® for enrichment. All rats were examined, handled, and weighed prior to initiation of the study to ensure adequate health and suitability. During the study, 12/12 light/dark cycles were maintained. The room temperature was maintained between […] and 23° C. with relative humidity maintained around 50%. Chow (LabDiet 5001, LabDiet, St. Louis, MO, USA) and water were provided ad libitum except where specified below. Testing was performed during the animal's light cycle phase (between 6 am and […]). Body weights were recorded prior to baseline assessment. Latency to fall off the rotating rod was the primary measure of performance.
Training: Each trial on the rotarod was identical, a 5 second ramp from 0-17 RPM followed by a period of constant velocity at 17 RPM for up to 40 seconds, for a total trial time of […].
Animals ran three training trials on Day 1 with a 30 minutes interval between training trials. […] The outcome measured was latency to fall off the rotating rod. […]

MATE1 = assay: Transporter substrate, MATE1; format: in vitro ADME; settings: role: substrate
Procedure: Additionally, compound 760 was tested for its capability to act as a transporter substrate for various transporters, and was not found to be a transporter substrate for any of the tested transporters.

In the case of Cc1cn(-c2ccc(F)c(CC(=O)NCC(C)(C)O)c2)c2c(Cl)cc(Cl)cc12 [Compound 421-6], the “Inhibition of current induced AP response” value (rat DRG neurons; 100 nM) was 10.1±3.4%, the “Inhibition of current induced AP response” value (rat DRG neurons; 500 nM) was 51.2±8.4% and the “Inhibition of AP response to current” value (rat DRG neurons; 2 μM) was 77.7±5.6%. The pIC50 (rat DRG neurons; read-out: IC50 for inhibition of current induced AP responses) was about 6.30.

For O=C(Cc1cncc(-n2cc(Cl)c3cc(Cl)cc(Cl)c32)c1)N[C@@H]1COC[C@H]1O [Compound 661], the “Rotarod performance” value (rats) was “no effects on rotarod performance”.

In the case of O=C(Cc1nccc(-n2cc(Cl)c3cc(Cl)cc(Cl)c32)n1)NC1COCC1O (stereo not drawn) [Compound 760], the MATE1 substrate (MATE1) was “not a transporter substrate”.
